Where only a bound is given, the exact number is not on record here.

The test deals with Endogenous Huntingtin Protein. The test is described as follows: Endogenous Huntingtin Protein Assay (ELISA-based Meso Scale Discovery electrochemiluminescence). The test is classed as cell-based. The note with it: MSD electrochemiluminescence, Table 1. The gist of the method:
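Huntingtin was captured overnight at 4 °C on plates coated with 1 μg/mL MW1 (polyQ-expanded) or MAB2166 antibody and BSA-blocked. Detection used a rabbit monoclonal and then a SULFO-TAG goat anti-rabbit antibody (0.25 μg/mL, 1 h each, room temperature). Signal was read by electrochemiluminescence.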
For orientation: An ELISA detects its analyte on a solid surface through an enzyme-linked reagent.
In general, IC50 refers to the concentration that gives 50% inhibition. The low end stands for higher potency, the high end for lower potency. `CN(C)[C@H]1CC[C@@H]2CN(c3ncc(-c4ccc(-c5cn[nH]c5)cc4O)nn3)C[C@@H]21` [Cpd 167, 2-{3-[(3aR,4S,6aS)-4-(dimethylamino)hexahydrocyclopenta[c]pyrrol-2(1H)-yl]-1,2,4-triazin-6-yl}-5-(1H-pyrazol-4-yl)phenol] yielded an IC50 of at most 100 nM.
`Cc1cc(-c2ccc(-c3cnc(N(C)C4CC(C)(C)NC(C)(C)C4)nn3)c(O)c2)nc(O)c1N` [Cpd 168, 3-amino-6-(3-hydroxy-4-{3-[methyl(2,2,6,6-tetramethylpiperidin-4-yl)amino]-1,2,4-triazin-6-yl}phenyl)-4-methylpyridin-2-ol] gave an IC50 of 100 to 500 nM.
The result for `Cc1nc2c(C)cc(-c3ccc(-c4cnc(N(C)C5CC(C)(C)NC(C)(C)C5)nn4)c(O)c3)nc2o1` [Cpd 169, 5-(2,7-dimethyl[1,3]oxazolo[5,4-b]pyridin-5-yl)-2-{3-[methyl(2,2,6,6-tetramethylpiperidin-4-yl)amino]-1,2,4-triazin-6-yl}phenol] reads at most 100 nM; that for `CCC(C)(CC)NC1CCN(c2ncc(-c3ccc(-c4cn[nH]c4)cc3O)nn2)C1` (stereo not shown) [Cpd 170, 2-(3-{3-[(3-methylpentan-3-yl)amino]pyrrolidin-1-yl}-1,2,4-triazin-6-yl)-5-(1H-pyrazol-4-yl)phenol], at most 100 nM; that for `CC1CC(NC(C)(C)C)CN1c1ncc(-c2ccc(-c3cn[nH]c3)cc2O)nn1` (stereo not shown) [Cpd 171, 2-{3-[4-(tert-butylamino)-2-methylpyrrolidin-1-yl]-1,2,4-triazin-6-yl}-5-(1H-pyrazol-4-yl)phenol], at most 100 nM.
The value for `CN(c1ncc(-c2ccc(-n3ncc(CO)n3)cc2O)nn1)C1CC(C)(C)NC(C)(C)C1` [Cpd 172, 5-[4-(hydroxymethyl)-2H-1,2,3-triazol-2-yl]-2-{3-[methyl(2,2,6,6-tetramethylpiperidin-4-yl)amino]-1,2,4-triazin-6-yl}phenol] was at most 100 nM; that for `CN(c1ncc(-c2ccc(-c3ccc4nnn(C)c4n3)cc2O)nn1)C1CC(C)(C)NC(C)(C)C1` [Cpd 173] was at most 100 nM.
The value for `CC(C)(C)NC1CCN(c2ncc(-c3ccc(-c4c[nH]nc4F)cc3O)nn2)C1` (stereo not shown) [Cpd 174, 2-{3-[3-(tert-butylamino)pyrrolidin-1-yl]-1,2,4-triazin-6-yl}-5-(3-fluoro-1H-pyrazol-4-yl)phenol] was at most 100 nM; that for `Cn1ccc(-c2ccc(-c3cnc(N4CCC(NC(C)(C)C)C4)nn3)c(O)c2)n1` (stereo not shown) [Cpd 175, 2-{3-[3-(tert-butylamino)pyrrolidin-1-yl]-1,2,4-triazin-6-yl}-5-(1-methyl-1H-pyrazol-3-yl)phenol] was 1000 to 3000 nM; that for `CN(c1ncc(-c2ccc(-c3cnc4c(cnn4C)c3)cc2O)nn1)C1CC(C)(C)NC(C)(C)C1` [Cpd 176, 5-(1-methyl-1H-pyrazolo[3,4-b]pyridin-5-yl)-2-{3-[methyl(2,2,6,6-tetramethylpiperidin-4-yl)amino]-1,2,4-triazin-6-yl}phenol] was at most 100 nM.
In turn, `CN(c1ncc(-c2ccc(-c3ccc4c(cnn4C)c3)cc2O)nn1)C1CC(C)(C)NC(C)(C)C1` [Cpd 177, 5-(1-methyl-1H-indazol-5-yl)-2-{3-[methyl(2,2,6,6-tetramethylpiperidin-4-yl)amino]-1,2,4-triazin-6-yl}phenol] registered an IC50 of at most 100 nM.
The result for `CN(c1ncc(-c2ccc(-c3ccc4nnnn4n3)cc2O)nn1)C1CC(C)(C)NC(C)(C)C1` [Cpd 178, 2-{3-[methyl(2,2,6,6-tetramethylpiperidin-4-yl)amino]-1,2,4-triazin-6-yl}-5-(tetrazolo[1,5-b]pyridazin-6-yl)phenol] reads at most 100 nM; that for `CN(c1ncc(-c2ccc(-c3cc(CO)ncn3)cc2O)nn1)C1CC(C)(C)NC(C)(C)C1` [Cpd 179, 5-[6-(hydroxymethyl)pyrimidin-4-yl]-2-{3-[methyl(2,2,6,6-tetramethylpiperidin-4-yl)amino]-1,2,4-triazin-6-yl}phenol], at most 100 nM.
The compound `Oc1cc(-c2cn[nH]c2)ccc1-c1cnc(N2CCC3(CCCNC3)CC2)nn1` [Cpd 180, 2-[3-(2,9-diazaspiro[5.5]undecan-9-yl)-1,2,4-triazin-6-yl]-5-(1H-pyrazol-4-yl)phenol] came in with an IC50 of 1000 to 3000 nM.
The result for `Oc1cc(-c2cn[nH]c2)ccc1-c1cnc(N2CCC3(CCNC3)CC2)nn1` [Cpd 181, 2-[3-(2,8-diazaspiro[4.5]decan-8-yl)-1,2,4-triazin-6-yl]-5-(1H-pyrazol-4-yl)phenol] reads over 500 nM; that for `CN1CCCC2(CCN(c3ncc(-c4ccc(-c5cn[nH]c5)cc4O)nn3)CC2)C1` [Cpd 182, 2-[3-(2-methyl-2,9-diazaspiro[5.5]undecan-9-yl)-1,2,4-triazin-6-yl]-5-(1H-pyrazol-4-yl)phenol], over 500 nM; that for `CN1CCC2(CCN(c3ncc(-c4ccc(-c5cn[nH]c5)cc4O)nn3)CC2)C1` [Cpd 183], 100 to 500 nM.
The value for `CN(c1ncc(-c2ccc(-c3cc4cn[nH]c4cn3)cc2O)nn1)C1CC(C)(C)NC(C)(C)C1` [Cpd 184, 2-{3-[methyl(2,2,6,6-tetramethylpiperidin-4-yl)amino]-1,2,4-triazin-6-yl}-5-(1H-pyrazolo[3,4-c]pyridin-5-yl)phenol] was at most 100 nM.
The compound `CN(c1ncc(-c2ccc(-c3ccc4ncccc4c3)cc2O)nn1)C1CC(C)(C)NC(C)(C)C1` [Cpd 185, 2-{3-[methyl(2,2,6,6-tetramethylpiperidin-4-yl)amino]-1,2,4-triazin-6-yl}-5-(quinolin-6-yl)phenol] came in with an IC50 of at most 100 nM.
`CN(c1ncc(-c2ccc(-c3ccc4c(nnn4C)n3)cc2O)nn1)C1CC(C)(C)NC(C)(C)C1` [Cpd 186, 2-{3-[methyl(2,2,6,6-tetramethylpiperidin-4-yl)amino]-1,2,4-triazin-6-yl}-5-(1-methyl-1H-[1,2,3]triazolo[4,5-b]pyridin-5-yl)phenol] displayed an IC50 of at most 100 nM.
The value for `CC(C)(C)NC1CCN(c2ncc(-c3ccc(-n4ccnc4)cc3O)nn2)C1` (stereo not drawn) [Cpd 187, 2-{3-[3-(tert-butylamino)pyrrolidin-l-yl]-1,2,4-triazin-6-yl}-5-(1H-imidazol-1-yl)phenol] was 100 to 500 nM.
The value for `CN(c1ncc(-c2ccc(-c3ccc4c(c3)OCO4)cc2O)nn1)C1CC(C)(C)NC(C)(C)C1` [Cpd 188, 5-(2H-1,3-benzodioxo1-5-yl)-2-{3-[methyl(2,2,6,6-tetramethylpiperidin-4-yl)amino]-1,2,4-triazin-6-yl}phenol] was at most 100 nM.
The value for `CC1(C)C[C@@H](Nc2ncc(-c3ccc(-c4c[nH]nc4F)cc3O)nn2)[C@@H](F)C(C)(C)N1` [Cpd 189, 5-(3-fluoro-1H-pyrazol-4-yl)-2-(3-{[(3R,4R)-3-fluoro-2,2,6,6-tetramethylpiperidin-4-yl]amino}-1,2,4-triazin-6-yl)phenol] was at most 100 nM; that for `CC(C)(C)N[C@@H]1CC[C@@H]2CN(c3ncc(-c4ccc(-c5cn[nH]c5)cc4O)nn3)C[C@@H]21` [Cpd 193, 2-{3-[(3aR,4R,6aS)-4-(tert-butylamino)hexahydrocyclopenta[c]pyrrol-2(1H)-yl]-1,2,4-triazin-6-yl}-5-(1H-pyrazol-4-yl)phenol] was 1000 to 3000 nM; that for `CN(c1ncc(-c2ccc(-c3cnc4[nH]ncc4n3)cc2O)nn1)C1CC(C)(C)NC(C)(C)C1` [Cpd 194, 2-{3-[methyl(2,2,6,6-tetramethylpiperidin-4-yl)amino]-1,2,4-triazin-6-yl}-5-(1H-pyrazolo[3,4-b]pyrazin-5-yl)phenol] was at most 100 nM.
Regarding `CN(c1ncc(-c2ccc(-c3ncc4[nH]ncc4n3)cc2O)nn1)C1CC(C)(C)NC(C)(C)C1` [Cpd 195, 2-{3-[methyl(2,2,6,6-tetramethylpiperidin-4-yl)amino]-1,2,4-triazin-6-yl}-5-(1H-pyrazolo[4,3-d]pyrimidin-5-yl)phenol], the IC50 is at most 100 nM.
The value for `CN(c1cnc(-c2ccc(-c3cnn(C)c3)cc2O)nn1)C1CC(C)(C)NC(C)(C)C1` [Cpd 196, 5-(1-methyl-1H-pyrazol-4-yl)-2-{6-[methyl(2,2,6,6-tetramethylpiperidin-4-yl)amino]-1,2,4-triazin-3-yl}phenol] was at most 100 nM; that for `Cc1cn(-c2ccc(-c3cnc(N4CCC(NC(C)(C)C)C4)nn3)c(O)c2)cn1` (stereo not drawn) [Cpd 197, 2-{3-[3-(tert-butylamino)pyrrolidin-l-yl]-1,2,4-triazin-6-yl}-5-(4-methyl-1H-imidazol-1-yl)phenol] was 100 to 500 nM.
The result for `CN(c1ncc(-c2ccc(-c3ccc4c(cnn4C)n3)cc2O)nn1)C1CC(C)(C)NC(C)(C)C1` [Cpd 198, 5-(1-methyl-1H-pyrazolo[4,3-b]pyridin-5-yl)-2-{3-[methyl(2,2,6,6-tetramethylpiperidin-4-yl)amino]-1,2,4-triazin-6-yl}phenol] reads at most 100 nM; that for `Cn1cc(-c2ccc(-c3cnc(NC4CC(C)(C)NC(C)(C)C4)nn3)c(O)c2)cn1` [Cpd 199, 5-(1-methyl-1H-pyrazol-4-yl)-2-{3-[(2,2,6,6-tetramethylpiperidin-4-yl)amino]-1,2,4-triazin-6-yl}phenol], at most 100 nM; that for `CN(c1ncc(-c2ccc(-c3ccc4c(c3)nnn4C)cc2O)nn1)C1CC(C)(C)NC(C)(C)C1` [Cpd 200, 5-(1-methyl-1H-benzotriazol-5-yl)-2-{3-[methyl(2,2,6,6-tetramethylpiperidin-4-yl)amino]-1,2,4-triazin-6-yl}phenol], at most 100 nM.
The value for `Cn1cc(-c2ccc(-c3cnc(N[C@H]4CC(C)(C)NC(C)(C)[C@H]4F)nn3)c(O)c2)cn1` [Cpd 201, 2-(3-{[(3S,4S)-3-fluoro-2,2,6,6-tetramethylpiperidin-4-yl]amino}-1,2,4-triazin-6-yl)-5-(1-methyl-1H-pyrazol-4-yl)phenol] was at most 100 nM; that for `Cn1cc(-c2ccc(-c3cnc(N4CCC(NC(C)(C)C)C4)nn3)c(O)c2)cn1` (stereo not drawn) [Cpd 202, 2-{3-[3-(tert-butylamino)pyrrolidin-l-yl]-1,2,4-triazin-6-yl}-5-(1-methyl-1H-pyrazol-4-yl)phenol] was at most 100 nM.
The compound `CC(C)NC1CCN(c2ncc(-c3ccc(-c4cnn(C)c4)cc3O)nn2)C1` (stereo not shown) [Cpd 203] came in with an IC50 of at most 100 nM.

The values are drawn from US11780839B2, “Compounds for treating Huntington's disease” (PTC THERAPEUTICS, INC., priority 2018, dated 2023).
